# Results: PubChem BioAssay (NCI)
#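 All cell lines were grown in 96-well plates and treated with compound for 48 hours. The concentration for full growth arrest is given as TGI.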
# How the values were obtained:
# Assay in all cases: DTP human tumour cell line panel, 48 h
# [1] = tested on: 786-0 renal
# [2] = tested on: BT-549 breast
# [3] = tested on: COLO 205 colon
# [4] = tested on: HCC-2998 colon
# [5] = tested on: MALME-3M melanoma
# [6] = tested on: MCF7 breast
# [7] = tested on: MDA-MB-231 breast
# [8] = tested on: NCI-H226 lung
# [9] = tested on: NCI-H23 lung
# [10] = tested on: NCI-H522 lung
# [11] = tested on: RPMI-8226 leukemia
# [12] = tested on: RXF 393 renal
# [13] = tested on: SF-268 CNS
# [14] = tested on: SF-539 CNS
# [15] = tested on: SNB-19 CNS
# [16] = tested on: SW-620 colon
# [17] = tested on: UACC-257 melanoma
# [18] = tested on: HOP-92 NSCLC
# [19] = tested on: SK-MEL-2 melanoma
# [20] = tested on: SK-OV-3 ovarian
SMILES,TGI [1] [µM],TGI [2] [µM],TGI [3] [µM],TGI [4] [µM],TGI [5] [µM],TGI [6] [µM],TGI [7] [µM],TGI [8] [µM],TGI [9] [µM],TGI [10] [µM],TGI [11] [µM],TGI [12] [µM],TGI [13] [µM],TGI [14] [µM],TGI [15] [µM],TGI [16] [µM],TGI [17] [µM],TGI [18] [µM],TGI [19] [µM],TGI [20] [µM]
O=C(O)C(Cc1ccc(O)cn1)NC(=O)C(F)(F)F (stereo not given),> 100,> 100,> 100,> 100,> 100,> 100,> 100,> 100,> 100,> 100,> 100,> 100,> 100,> 100,> 100,> 100,> 100,,,
Cc1cc(S(=O)(=O)Nc2nc(N)n(-c3cnc4ccccc4n3)n2)c(S)cc1Cl,> 100,> 100,> 100,> 100,> 100,> 100,> 100,> 100,,> 100,,> 100,> 100,> 100,> 100,> 100,> 100,89.2,> 100,> 100
COC(=O)CCc1ccc2c(c1)CCC2,> 100,> 100,> 100,> 100,> 100,> 100,> 100,> 100,> 100,> 100,> 100,,> 100,> 100,> 100,> 100,> 100,> 100,> 100,> 100
COC(=O)c1cc(NC2OCC(OC(C)=O)C(OC(C)=O)C2OC(C)=O)nc(SC)c1C(=O)OC (stereo not given),> 100,> 100,> 100,> 100,,> 100,> 100,,> 100,> 100,> 100,,> 100,> 100,> 100,> 100,> 100,> 100,> 100,
CCCCCCCC1c2cc3[nH]c(cc4nc(cc5[nH]c(cc(n2)[C@@]1(C)CC(=O)N(C)C)c(C)c5CCC(=O)O)C(CCC(=O)O)=C4C)cc3C (stereo not given in full),83.1,28.6,32.2,37.8,39,92.3,33.7,,34.1,37.8,47.7,33.9,42.9,34.2,36.9,> 100,35.2,43.8,34,> 100
COC(=O)c1cc(Br)c(C(=O)C(Cl)(Cl)Cl)[nH]1,> 100,> 100,> 100,,> 100,,> 100,> 100,> 100,> 100,> 100,> 100,> 100,> 100,> 100,> 100,> 100,> 100,> 100,> 100
CC(=O)O[C@H]1C(=O)[C@@]2(C)C(C(OC(=O)c3ccccc3)[C@]3(O)CC(OC(=O)C(O)C(NC(=O)c4ccccc4)c4ccc(F)cc4)C(C)=C1C3(C)C)[C@]1(OC(C)=O)CO[C@@H]1C[C@@H]2O (stereo not given in full),> 10,> 10,0.0755,0.0193,,> 10,0.608,,> 10,1.34,2.09,0.0187,> 10,0.00307,> 10,> 10,> 10,> 10,3.27,> 10
CN(C)c1ccc(N=Nc2cccc3ccoc23)cc1,> 100,> 100,> 100,> 100,> 100,,> 100,> 100,> 100,> 100,> 100,> 100,> 100,> 100,> 100,> 100,> 100,> 100,> 100,> 100
CCOC(=O)C(NNS(=O)(=O)c1ccc(C)cc1)S(=O)(=O)C(F)(F)C(F)(F)C(F)(F)C(F)(F)F (stereo not given),> 100,> 100,> 100,> 100,> 100,> 100,> 100,> 100,> 100,> 100,> 100,,> 100,> 100,> 100,> 100,> 100,> 100,> 100,> 100
COC(=O)c1cc(C)ccc1/C=C1\Cc2cc(C)c(C)cc2C1=O,> 100,> 100,,> 100,> 100,,> 100,> 100,> 100,> 100,> 100,> 100,> 100,> 100,> 100,> 100,> 100,> 100,> 100,
Cn1c(=O)n(-c2c3ccccc3c(Cl)c3ccccc23)n(C(C)(C)C)c1=O,> 100,> 100,> 100,> 100,> 100,> 100,> 100,> 100,> 100,> 100,,,> 100,> 100,> 100,> 100,> 100,> 100,> 100,> 100
CCCSc1cc(Cl)c(C)cc1S(=O)(=O)n1cc[nH]c1=O,> 100,> 100,> 100,> 100,> 100,> 100,> 100,> 100,> 100,> 100,,> 100,> 100,> 100,> 100,> 100,> 100,,> 100,> 100
COc1ccc(C2Oc3c(cccc3OC)C=C2[N+](=O)[O-])cc1OC (stereo not given),19.7,31,73.7,,38.7,> 100,> 100,78.2,22.3,12.8,> 100,8.76,> 100,,> 100,,,,,17.9
